# Assay results published in patent US9856511B2, “Protease deubiquitinating inhibitor screening” (priority 2011, dated 2018).
# How the values were obtained:
# [1] = test system: HCT-116 Bcl-2+ colon carcinoma; assay: Disease free survival of nude mice challenged with HCT-116 Bcl-2+ cells; assay type: in vivo; details: 5 mg/kg 4-5 times weekly for 3 weeks; log-rank P=0.0136
# Method: Animal experiments were conducted in full accordance with Swedish governmental statutory regulations on animal welfare under permission from local ethical committees. Animals were housed at a max of five per cage and provided with sterile water and food ad libitum. All mice were monitored and weighed daily. For the head and neck carcinoma model a 100-μl cell suspension containing 1×10^6 FaDu cells was injected subcutaneously into the right rear flank of the animals. After injection, tumor growth was measured daily with calipers and the tumor volume calculated by the formula […]. When tumors had grown to a size of approximately 200 mm^3 (Day 0) mice were randomized to receive either vehicle (n=10) or b-AP15 5 mg/kg^−1 by subcutaneous injection s.c. (n=15) daily. […] Nineteen days after malignant cell injection all of the mice were killed and histopathological manifestations of liver, ovary (target organs for this model of tumor) were evaluated and compared between groups. […]
# SCID mice bearing FaDu human tumor xenografts were randomized at tumor take (200 mm^3) and treated by daily subcutaneous injection with either vehicle (n=10) or 5 mg kg^−1 b-AP15 (n=15) for 10 days. […] Mice were treated with vehicle (n=6) or 5 mg kg^−1 b-AP15 (n=6) 4-5 times weekly for 3 weeks and monitored for tumor onset (log-rank, P=0.0136, hazard ratio=7.9). […]
# [2] = test system: isogenic clones of HCT116 colon cancer cells; assay: Apoptosis in isogenic HCT116 clones, caspase cleaved cytokeratin-18 ELISA; assay type: cell-based
# Method: The increase in sub G1 DNA content is associated with (i) activation of the apoptosis mediator caspase-3 and (ii) with cleavage of the caspase substrates poly-ADP ribose polymerase (PARP) and cytokeratin-18. […] Apoptosis induction by bortezomib is dependent on p53 and inhibited by overexpression of the Bcl-2 protein (16,17).
# For determination of apoptosis parental HCT-116 p53+/+ cells were treated with the increasing doses of bortezomib or b-AP15 for 24 h. […] HCT-116 cells were seeded in 96-well microtiter plates at 10,000 cells per well and incubated overnight. Cells were treated with indicated drug for 24 h. At the end of the incubation period, NP40 was added to the tissue culture medium to 0.1% and 25 μl of the content of each well was assayed using the M30-Apoptosense® ELISA as previously described (43). Cell viability was determined by measuring acid phosphatase activity or using the FMCA method (44). For the acid phosphatase activity cells were seeded at 5000 cells per well in 96-well culture plates and incubated for 12 h at 37° C. Compounds were added to the cells in growth media and incubated for 72 h at 37° C. Cells were washed with 200 μl warm PBS. […] Absorbance was measured at 405 nm.
# b-AP15 inhibits degradation of ubiquitin-tagged YFP in a proteasome reporter cell line (FIG. 1a). Levels of ^UbG76V-YFP accumulation were determined by flow cytometry and immunoblotting; immunoblot of ubiquitin conjugation in HCT-116 cells treated with b-AP15 (1 μM) or bortezomib (100 nM) (FIG. 1b). […] Immunoblot of ODC-1 levels in HCT-116 cells following treatment with bortezomib ([…] or b-Ap15 (1 μM) (FIG. 1d); values represent quantified optical density units of ODC-1 normalized to β-actin. Cell cycle profiles of b-AP15 treated HCT-116 cells (FIG. 1e); cells were analyzed by propidium iodide staining and flow cytometry. Levels of caspase activity in isogenic HCT-116 cells as determined by ELISA for caspase cleaved cytokeratin-18 (CK18-Asp398) following treatment with bortezomib (100 nM) or b-AP15 (1 μM) (**′P=0.01, ***′P=0.001) (FIG. 1f). […]
smiles,measurement,setting,value
C=CC(=O)N1C/C(=C\c2ccc([N+](=O)[O-])cc2)C(=O)/C(=C/c2ccc([N+](=O)[O-])cc2)C1 [b-AP15],"disease free survival (tumor onset), hazard ratio",[1],7.9
same,apoptosis: effect of genetic disruption of BAX or PUMA,[2],does not affect b-AP15 sensitivity
same,caspase cleavage of cytokeratin-18: effect of p53 disruption or Bcl-2 overexpression,[2],not affected by genetic disruption of p53 or overexpression of Bcl-2
